Measured values taken from patent publication US10786518B2, “Compositions and methods of treating HIV” (priority 2017, dated 2020).
“And” between values parts separate entries of the source, which are not always exact repeats. Equal entries are not always repeated. Structures can show the parent of a compound that is named as a salt. Where two headings read alike, the source gives them in different places. Marks after values point to notes of the source that are not given here.

Assays:
clinical [1] = conditions: human
[2] = Food-effect bioavailability study: plasma pharmacokinetics; conditions: for AUCinf geometric mean ratio (90% CI), fasted (test) vs fed (reference) / AUClast geometric mean ratio (90% CI), fasted (test) vs fed (reference) / Cmax geometric mean ratio (90% CI), fasted (test) vs fed (reference) / t1/2term, mean (SD) / AUCinf, mean (SD) / AUClast, mean (SD) / Cmax, mean (SD): single oral dose D/C/F/TAF 800/150/200/10 mg;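 for all read-outs here: volunteers randomized to two single-dose treatment sessions separated by a washout of at least 7 days, dosing preceded by an overnight fast of at least 10 h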
clinical [3] = conditions: human, po
[4] = Bioequivalence study: plasma pharmacokinetics; conditions: single oral dose D/C/F/TAF 800/150/200/10 mg (test), fed, standardized regular breakfast
HIV-1 = conditions: n = 102 newly diagnosed treatment-naive patients
[5] = human, in vivo
[6] = human, in vivo; remark: listed apart in the source
[7] = cited from earlier work; for Mean systemic tenofovir exposure: TAF group versus TDF group of the Phase II study
[8] = administered as D/C/F/TAF, fed = standardized high-fat breakfast
[9] = fed, standardized high-fat breakfast (reference)
[10] = subset of 32 treatment-naive HIV-1-infected adults

| SMILES | AUCinf lower in fasted compared with fed conditions [2, 8] [%] | AUCinf geometric mean ratio (90% CI), fasted (test) vs fed (reference) [2] | AUClast geometric mean ratio (90% CI), fasted (test) vs fed (reference) [2] | Cmax geometric mean ratio (90% CI), fasted (test) vs fed (reference) [2] | t1/2term, mean (SD) ([2]; fasted (test)) | AUCinf, mean (SD) [2, 9] | Cmax, mean (SD) [2, 9] | t1/2term, mean (SD) [2, 9] | t1/2term, mean [4] [h] | Genotypic susceptibility at screening/baseline, patients (HIV-1) | AUC(0-inf) (clinical [1]; in vivo) [ng·h/mL] | Cmax (clinical [1]; in vivo) [ng/mL] | AUC(0-t) (clinical [1]; in vivo) [ng·h/mL] | Mean systemic tenofovir exposure [7] [ng·h/mL] | other results |
| --- | --- | --- | --- | --- | --- | --- | --- | --- | --- | --- | --- | --- | --- | --- | --- |
| CC(C)c1nc(CN(C)C(=O)N[C@@H](CCN2CCOCC2)C(=O)N[C@H](CC[C@H](Cc2ccccc2)NC(=O)OCc2cncs2)Cc2ccccc2)cs1 [COBI, cobicistat] | 16 | 84.39^k (68.52-103.95)^ % | 70.90 (51.13-98.30) % | 76.96 (55.70-106.33) % | 4.1 (0.9) hours | 6258 (2268) ng · h/mL | 711 (164) ng/mL | 3.9 (0.6) hours | 3.7 |  |  |  |  |  | AUC(0-inf) (clinical [1]; plasma, oral): 6870 ng·h/mL; AUC(0-t) (clinical [1]; plasma, oral): 6760 ng·h/mL; Cmax (clinical [1]; plasma, oral): 881 ng/mL; Tmax (clinical [1]; plasma, oral): 4 h; AUClast lower in fasted compared with fed conditions [2, 8]: 29%; Cmax lower in fasted compared with fed conditions [2, 8]: 23%; AUClast, mean (SD) [2, 9]: 6168 (2260) ng · h/mL; Tmax (clinical [3]; plasma): 3 h |
| CC(C)CN(C[C@@H](O)[C@H](Cc1ccccc1)NC(=O)O[C@H]1CO[C@H]2OCC[C@H]21)S(=O)(=O)c1ccc(N)cc1 [DRV, darunavir] |  |  |  |  |  |  |  |  |  | (100) % | 85200 | 6620 |  |  |  |
| Nc1nc(=O)n([C@@H]2CS[C@H](CO)O2)cc1F [FTC, emtricitabine] |  |  |  |  |  |  |  |  |  | (98) % | 11900 | 2050 | 11700 |  | Cmax higher in fasted compared with fed conditions [5]: 26%; AUClast geometric mean ratio (90% CI), fasted (test) vs fed (reference) ([5]; po): 100.12 (96.29-104.10) %; AUCinf geometric mean ratio, test vs reference [6]: 100.13%; AUClast geometric mean ratio, test vs reference [6]: 100.04%; Cmax geometric mean ratio, test vs reference [6]: 99.32%; t1/2term, mean [6]: 17.0 h; t1/2term, mean ([6]; po): 16.5 h |
| CC(C)OC(=O)[C@H](C)N[P@](=O)(CO[C@H](C)Cn1cnc2c(N)ncnc21)Oc1ccccc1 [TAF, tenofovir alafenamide] | 20 | 80.38^l (73.04-88.45)^ % | 89.54 (81.20-98.72) % | 182.29 (140.50-236.50) % | 0.3 (0.2) hours | 125 (57.3) ng · h/mL | 107 (65.2) ng/mL | 0.5 hours and 0.5 (0.1) hours | 0.3 |  | 141 | 120 | 132 | 339 | Lower mean systemic tenofovir exposure than in the TDF group ([7]; Phase II study): greater than 90%; Mean plasma exposure (AUClast) [7, 10]: 130.5 ng·h/mL; Median plasma half-life [7, 10]: 0.45 h; Tmax (clinical [1]; in vivo): 1.01 h; AUClast, fasted versus fed conditions (90% CI of the GMR within 80% to […]) ([2]; administered as D/C/F/TAF): comparable under both conditions; Cmax higher in fasted compared with fed conditions [2, 8]: 82%; AUClast, mean (SD) ([2]; fasted (test)): 106 (44.7) ng · h/mL; Tmax (clinical [3]; in vivo): 0.5 h |
| CC(C)OC(=O)OCOP(=O)(CO[C@H](C)Cn1cnc2c(N)ncnc21)OCOC(=O)OC(C)C [TDF, tenofovir disoproxil fumarate] |  |  |  |  |  |  |  |  |  | (100) % |  |  |  | 3737 |  |
